Common to all, as to assay: TUNEL analysis of apoptosis
Holding throughout (format): cell-based, human

One assay deals with U266. Particulars: 48 h. The source says:
(§1) FIGS. 7A-7C. TUNEL analysis of PLATINUM-401-mediated apoptosis. (FIG. 7A) Normal NIH3T3 fibroblasts and their v-Src-transformed counterparts (NIH3T3/v-Src), human breast carcinoma cell lines (MDA-MB-453, MDA-MB-435, MDA-MB-468, and MDA-MB-231), human non-small cell lung cancer cell line (A549), human prostate cancer cell line (DU145), multiple myeloma 5TGM1 (mouse) and U266 (human) cell lines, mouse melanoma cell line (B16) and human pancreatic cancer cell line (Panc1) were all treated with or without PLATINUM-401 for 48 h and analyzed by TUNEL for DNA damage. For each cell line, the activated Stat3 status is indicated as (−), no constitutively-active Stat3 and (+), constitutively-active Stat3 (see FIG. 5A). Data are representative of 3 independent determinations; (FIG. 7B) Human breast cancer cell lines (MDA-MB-453, MDA-MB-468 and MDA-MB-435) were transfected with or without Stat3β or Stat3 antisense (Stat3AS), or were treated with or without Stat3 peptidomimetic inhibitor, ISS 610 (1 mM) or PLATINUM-401 (5 μM)). Forty-eight hours afterwards, cells were harvested and processed for TUNEL analysis; (FIG. 7C) The viral Src-transformed NIH3T3/v-Src fibroblasts were transfected with or without wild-type Stat3 (pRc/CMV Stat3 Flag) and treated with or without 5 μM PLATINUM-401 for 36 h. Cells were subsequently harvested for nuclear extracts preparation and Stat3 DNA-binding assay in vitro with EMSA analysis (left panel), or were processed for TUNEL analysis (right panel).
(§2) Cell proliferation and TUNEL assays—Proliferating cells were first treated with or without PLATINUM-401 for up to 48 h. A portion of cells were harvested for BrdU incorporation following the manufacturer's (BD Biosciences Pharmingen, San Diego, Calif.) instructions and analyzed by flow cytometry. Harvested cells were also analyzed for apoptosis via detection of TdT-mediated dUTP nick-end labeling (TUNEL) assay using Apoptosis Detection Systems Fluorescein according to the manufacturer's (Roche, Indianapolis, Ind.) instructions. Oligonucleotides and plasmids Transfections. The Stat3 antisense (5′-[…]-3′) (SEQ ID NO:3) or control mismatch oligonucleotides (5′-[…]-3′) (SEQ ID NO:4) were synthesized using phosphorothioate chemistry and were synthesized with 2′-Omethoxyethyl modification of the five terminal nucleotides (underlined; (Mora et al., 2002; Karras et al., 2000)) to increase stability. Transfections of Stat3AS and plasmids were carried out with Lipofectamine 2000 (LF) according to the manufacturer's instructions (Invitrogen, Carlsbad, Calif.). Briefly, cells were seeded at 1-2×10^6 cells/10-cm tissue-culture plates 18 h before transfection. Immediately before transfection, cells were washed once with PBS. Cells were transfected with luciferase reporters (4 μg) in the presence or absence of v-Src (4 μg), or were transfected with Stat3β (4 μg) or pRC/CMV Stat3 Flag (4 μg). Stat3AS transfections were carried out LF alone, or with LF/Stat3 antisense oligonucleotides, or LF/Stat3 mismatch oligonucleotides (final concentration of the oligonucleotides was 250 nM). After 2-3 h, the transfection medium was aspirated and cells washed with PBS before fresh medium added containing 10% FBS was added.
(§3) Cells were analyzed for DNA-strand breaks by TUNEL staining. […] The incidence of apoptosis correlated with the prevalence of constitutively-active Stat3 in malignant cells (FIG. 7, lower panel). Moreover, the incidence of apoptosis by PLATINUM-401 in breast cancer cell lines (MDA-MB-468 and MDA-MB-435) harboring constitutively-active Stat3 compares favorably to that induced by other previously investigated Stat3 inhibitory approaches, such as Stat3β (Garcia et al., 2001), Stat3 antisense (Stat3AS) (Mora et al., 2002), peptidomimetic inhibitor of Stat3 (ISS 610) (FIG. 7B) (Turkson et al., 2004c), and contrasts with the absence of apoptosis in breast cancer cell line, MDA-MB-453 that lacks constitutively-active Stat3. […]

Another assay deals with Panc1. As to conditions: 48 h.
Excerpt: as §1, §2, §3

The subject of a further assay is MDA-MD-231. As to conditions: 48 h.
Excerpt: as §1, §2, §3

The next assay has as its system MDA-MB-435. As to conditions: 48 h.
Excerpt: as §1, §2, §3

The subject of another assay is A549. Particulars: 48 h.
Excerpt: as §1, §2, §3

The test system of a further assay is MDA-MB-468. Particulars: 48 h.
Excerpt: as §1, §2, §3

In another assay the test system is MDA-MB-453. As to conditions: 48 h, no aberrant Stat3 activity.
Excerpt: as §1, §2, §3

Each structure is given as a SMILES string.

In the case of `CC(O)CN1CCN(CC(C)O)CC1` (stereo not shown) [PLATINUM-401], the TUNEL staining result with U266, with Panc1, with MDA-MD-231, in the assay on MDA-MB-435, with A549 and in the assay with MDA-MB-468 was “Significant TUNEL staining” throughout. Further, in the assay on MDA-MB-453, the TUNEL staining entry is recorded as “no TUNEL staining”.

The values are drawn from patent US11571418B2, “Platinum compounds that inhibit constitutive STAT3 signaling and induce cell cycle arrest and apoptosis of malignant cells” (H. LEE MOFFITT CANCER CENTER AND RESEARCH INSTITUTE, INC., priority 2011, dated 2023).
